Data set [1] has as its system B16-F1 mouse melanoma cell line. As to conditions: read-out: IC50 of Compound 1 tartrate; B16-F1, Murine Melanoma; ATP levels 72 h post-treatment compared to untreated cells. As for the experimental part:
(§1) The cells lines were plated in 96-well microtiter plates (PerkinElmer Life Sciences Inc, Boston, Mass., USA) at a confluency that allowed them to reach confluence after 4 days of growth. […] The total dimethyl sulfoxide on the cells was 1%. After 3 days of incubation the ATP levels in the cells were quantified using a luminescent ViaLight detection system (Bio-Whittaker, MD, USA).

The test system of data set [2] is HMEC normal mammary epithelial cells. As for the experimental part:
as §1

In data set [3] the test system is ADR-RES human breast cancer cell line. As to conditions: read-out: IC50 of Compound 1 tartrate; NCI/ADR-RES, Breast (Mutli-drug resistant); ATP levels 72 h post-treatment compared to untreated cells. How it is done:
as §1

In data set [4] the test system is H460 non-small cell lung cancer cell line. As to conditions: read-out: IC50 of Compound 1 tartrate; H460, NSCLC; ATP levels 72 h post-treatment compared to untreated cells. As for the experimental part:
as §1

In data set [5] the test system is cancer cell lines H1299 and C33A, normal cell lines HMEC and MRC-5. As to conditions: 0.5 μM, 72 hours after treatment; H1299 and C33A vs HMEC and MRC-5; FIG. 1. How it is done:
as §1

The subject of data set [6] is PC-3 human prostatic carcinoma cell line. As to conditions: read-out: IC50 of Compound 1 tartrate; PC-3, Prostate; ATP levels 72 h post-treatment compared to untreated cells. As for the experimental part: as §1
For data set [7], the system named is MCF-7 human breast cancer cell line. As to conditions: read-out: IC50 of Compound 1 tartrate; MCF-7, Breast; ATP levels 72 h post-treatment compared to untreated cells. How it is done: as §1
The subject of data set [8] is A549 human lung carcinoma cell line. As to conditions: read-out: IC50 of Compound 1 tartrate; A549, NSCLC; ATP levels 72 h post-treatment compared to untreated cells. How it is done:
as §1

Data set [9] has as its system SW-480 human adenocarcinoma cell line. As to conditions: read-out: IC50 of Compound 1 tartrate; SW-480, Colorectal; ATP levels 72 h post-treatment compared to untreated cells. As for the experimental part:
as §1

The test system of data set [10] is OVCAR-3 human ovarian carcinoma cell line. As to conditions: read-out: IC50 of Compound 1 tartrate; OVCAR-3, Ovary; ATP levels 72 h post-treatment compared to untreated cells. As for the experimental part:
as §1

A short description of data set [11]: Shelf stability (precipitation) of formulation. The data set is classed as physicochemical. As to conditions: 0.6 mg/mL in 9.6% polyethylene glycol 300, 0.4% polysorbate 20 and 5% dextrose; listed as Compound 1 Tartrate Salt.
Protocol: (§5) To determine whether a compound is soluble in a solution, the solution was filtered on 0.2 μM polytetrafluoroethylene filters (Whatman Inc. Clifton, N.J., USA) and the compound concentration in the filtrate was measured by LC/MS and compared to the expected concentration.
The subject of data set [12] is C33A human cervical cancer cells. As to conditions: for reduction in tumor growth compared to vehicle only: 4.5 mg/kg IV once a day for five days, C33A tumors in SCID mice, FIG. 3; for T/C value: 4.5 mg/kg IV once daily for five days. How it is done: The resultant mice are a model for a human having cervical cancer.
The C33A human cervical cancer cells were maintained in RPMI (Hyclone, Utah, USA) supplemented with 10% inactivated fetal bovine serum (Bio-Whittaker, MD, USA) and 1% penicillin-streptomycin-L-Glutamine (Gibco, N.Y., USA), under 5% CO2 at 37° C., and passaged twice a week. The cells were grown at a confluency lower than 70% and than collected with Trypsin (Bio-Whittaker, MD, USA). The cells were then centrifuged and washed twice using phosphate buffered saline solution (PBS) and resuspended in PBS at 2×10^6 cells per 100 μl.
C33A cells were injected subcutaneously into the flank of female CB17 SCID/SCID mice. Each mouse was inoculated with a suspension of 2×10^6 tumors cells per 150 μl on day zero.
Treatments started on day fourteen after C33A cells transplantation. […] The negative control group was treated with vehicle alone. […] The positive control group was treated once every 3 days for five times with cisplatin (Sigma, St. Louis, Mo., USA) at a dose of 4 mg/kg. Cisplatin was formulated in PBS on each day of the injection and was administered IP in an injection volume of 80 μl.
The mice were weighed and the tumors measured on day 13 and every 2 days after treatment commenced. Observation continued for 40 days after initial tumor implantation. The changes in body weight and in the calculated tumor volume were plotted.

The test system of data set [13] is H1299 human non-small cell lung cancer cells. Put plainly: Cell viability by cellular ATP levels (ViaLight), H1299 cells. The data set is classed as cell-based. As to conditions: H1299, NSCLC; ATP levels 72 h post-treatment compared to untreated cells; read-out: IC50 of Compound 1 tartrate. An excerpt:
(§2) […]. […] […]. The total dimethyl sulfoxide on the cells was 1%. […] […].
(§3) As depicted in Table 4, these compounds were efficient in decreasing cellular ATP levels in HI 299 and C33A cancer cell lines. Nevertheless, these compounds are believed to have utility in the in vivo methods of the invention, i.e., treatment and prevention of cancer and viral infections, respectively. It should be noted that, although this cell-based assay is believed to be indicative of anti-oncogenic activity in vivo, it is not the only useful assay for evaluating the anti-oncogenic activity of Triheterocyclic Compounds of the invention. In addition, the anti-viral and other biological activity of compounds of the invention can be determined and evaluated in other assay systems known to the skilled artisan.

The format of data set [14] is in vivo, CB17 SCID/SCID mice. As to conditions: 4.5 mg/kg IV once daily for five days, FIG. 2. How it is done:
Treatments started on day fourteen after C33A cells transplantation. […]. The negative control group was treated with vehicle alone. […].
Observation continued for 40 days after initial tumor implantation.

The test system of data set [15] is C33A cervical carcinoma cells. Put plainly: cells. The data set is classed as cell-based. As to conditions: C-33A, Cervix; ATP levels 72 h post-treatment compared to untreated cells; read-out: IC50 of Compound 1 tartrate.
Text: as §2, §3

The next data set is described as follows: physchem. As to conditions: water.
Data set [16] concerns the target T1, human placental alkaline phosphatase (Homo sapiens, UniProt P05187).
T1 construct: purchased Sigma-Aldrich Canada Ltd
Put plainly: Conversion of phosphate pro-drug by human placental alkaline phosphatase in vitro. As to conditions: 15 μM, 0.02 U/100 μL enzyme, pH 7.4; 30, 60, 120 minutes; FIG. 4. It counts as in vitro ADME. As for the experimental part: (§4) The conversion into biologically active drug of phosphate pro-drugs by calf intestinal alkaline phosphatase and human placental alkaline phosphatase was measured in vitro using purified enzymes. Purified calf intestinal alkaline phosphatase (Roche Diagnostic Inc. Laval, Quebec, Canada) or human placental alkaline phosphatase (Sigma-Aldrich Canada Ltd. Oakville, Ontario, Canada) was added at a concentration of 0.02 U/100 μL to a solution containing 15 μM of Compound 66, 20 mM Tris-HCl, pH 7.4 and 0.9% NaCl. The solutions were incubated for 30, 60 or 120 minutes. A solution containing 15 μM of Compound 66, 20 mM Tris-HCl, pH 7.4 and 0.9% NaCl was used as a reference (time=0 minutes). To each solution, an equal volume (100 μL) of ice-cold acetonitrile was added, and then the mixture was vortexed and transferred to glass vials. A standard concentration curve of the pro-drug and the drug was prepared in 10 mM Tris-HCl, pH 7.4, 0.45% NaCl and 50% acetonitrile. All samples were immediately analyzed by LC/MS.

The test system of data set [17] is calf intestinal alkaline phosphatase. Put plainly: Conversion of phosphate pro-drug by calf intestinal alkaline phosphatase in vitro. The data set is classed as in vitro ADME. As to conditions: 15 μM, 0.02 U/100 μL enzyme, pH 7.4; 30, 60, 120 minutes; FIG. 5. How it is done: as §4
In data set [18] the test system is human prostatic adenocarcinoma cancer PC3 cells. Put plainly: Growth of PC3 prostatic tumors in SCID mice. The data set is classed as in vivo. As to conditions: 5 consecutive intravenous injections; Compound 1 Mesylate Salt 4.84 μMoles/Kg; Compound 66 4.84 or 14.51 μMoles/Kg; FIG. 6. How it is done: The human prostatic adenocarcinoma cancer PC3 cells were purchased from the American Type Culture Collection (ATCC). These cells were confirmed to be free of mycoplasma infection. Cells were maintained in the Roswell Park Memorial Institute (RPMI), supplemented with 10% inactivated fetal bovine serum and 1% penicillin-streptomycin-L-Glutamine, under 5% carbon dioxide (CO2) at 37° C. For prostatic-tumor induction, cells were grown lower than 70% confluence in complete medium and then collected with trypsin (Bio Whittaker, Rockland, Me., USA). Cells were then centrifuged and washed 2 times in phosphate buffer solution (PBS) and resuspended in PBS at 1.5×10^6 cells/0.1 mL. PC3 cells were then transplanted subcutaneously into the flank of SCID mice (Charles River Laboratories, Wilmington, Mass., USA), as a suspension of tumor cells (1.5×10^6 cells in 100 μL PBS), under a laminar airflow hood. Eleven (11) days later, the size of each tumor was measured. […] Relative tumor size and volume was calculated as follows: length (cm)×[width (cm)]^2/2. […]

Converted amounts (≈) assume the structure as drawn. Counter-ions that a name gives are not always drawn. Like-named read-outs stand apart in the source and are kept apart here.

T1 sequence (P05187 23-506): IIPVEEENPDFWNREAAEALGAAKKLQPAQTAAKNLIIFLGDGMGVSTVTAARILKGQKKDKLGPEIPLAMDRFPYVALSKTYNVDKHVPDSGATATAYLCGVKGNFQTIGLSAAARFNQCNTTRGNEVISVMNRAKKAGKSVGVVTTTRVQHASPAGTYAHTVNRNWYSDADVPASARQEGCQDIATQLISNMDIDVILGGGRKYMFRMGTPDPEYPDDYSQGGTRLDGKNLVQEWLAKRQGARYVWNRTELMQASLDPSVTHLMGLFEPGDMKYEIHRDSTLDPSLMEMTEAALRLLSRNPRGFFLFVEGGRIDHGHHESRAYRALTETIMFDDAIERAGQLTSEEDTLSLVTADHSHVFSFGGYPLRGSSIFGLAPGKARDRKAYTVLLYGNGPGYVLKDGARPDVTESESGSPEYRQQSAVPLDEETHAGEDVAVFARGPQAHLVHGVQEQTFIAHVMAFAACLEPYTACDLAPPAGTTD
Protocol for physchem: as §5

As usually defined, the IC50 is the concentration at which inhibition is half-maximal. For the compound `COC1=CC(c2cc3ccccc3[nH]2)=N/C1=C\c1[nH]c(C)cc1C` [Compound 1 tartrate], the IC50 stood at 0.06 µM in data set [1]; 4 µM in [2] (read-out: IC50 of Compound 1 tartrate, HMEC, Normal Breast, ATP levels 72 h post-treatment compared to untreated cells); 0.4 µM in data set [3]; 0.3 µM in data set [4]; 0.2 µM in data set [6]; 0.6 µM in data set [7]. Further, the concentration for half-maximal inhibition (IC50) in data set [8] came out at 0.4 µM; in data set [9] it was 0.2 µM; in data set [10] it was 0.2 µM; in data set [13] it was 0.5 µM; in [15], 0.2 µM. Further, the “efficacy in decreasing cellular ATP levels in cancer cell lines versus HMEC normal cell line” value in [2] (ten cancer cell lines vs HMEC, various concentrations) was “greater efficacy in decreasing cellular ATP levels”. In addition, in data set [5], the “lowering of ATP levels in cancer cell lines compared with normal cell lines” value is “significantly more effective at lowering ATP levels”. Besides, in data set [11], the precipitation of formulation result is recorded as “tends to precipitate one hour after its preparation”. For the same compound, the results for the “reduction in tumor growth compared to vehicle only” value in data set [12] and in data set [12] (listed as Compound 1 Tartrate) were “statistically significant (p<0.0001) reduction in tumor growth” and “significantly reduces the human cervical tumors”, respectively. For the same compound, the T/C value turned out to be 14% in data set [12] (day 36) and 22% in [12] (day 39). Also, the “average tumor size versus vehicle only” value in data set [12] (days 36 and 39, 4.5 mg/kg) is given as “significantly (p<0.001) smaller tumors”. In addition, the results for the body weight change entry in data set [14] and in data set [14] (listed as Compound 1 Tartrate) were “no significant changes in body weight” and “non-significant weight loss”, respectively.
The term solubility denotes how much of the substance goes into solution per volume. Higher therefore signals much dissolved substance. `COC1=CC(c2cc3ccccc3n2C(=O)CC(C)(C)c2c(C)cccc2OP(=O)(O)O)=N/C1=C/c1[nH]c(C)cc1C` [Compound 66]: in “physchem”, the solubility amounted to 10 mg/mL (≈ 17 mM). The “conversion of pro-drug into Compound 1” value in [16] and in data set [17] was “convert a fraction of the pro-drug” in each case. Further, the “growth of prostatic tumors in mice” value in data set [18] is “significantly reduce the growth of prostatic tumors”.

(Values after patent US20050267073A1, “Triheterocyclic compounds, compositions, and methods for treating cancer or viral diseases” (priority 2004, published 2005).)
